Laboratory results taken from ChEMBL document CHEMBL1201862, “PubChem BioAssay data set” (2004).
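These data come from cells grown in 96-well plates and exposed to compound for 48 hours at five concentrations. GI50 = concentration required for 50% inhibition of growth.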 Active and inactive are the calls of the source. Cut-off read from the data, not from the text of the source: active = GI50 up to about 1.1 µM and inactive = higher.

Assays:
Assay in all cases: NCI tumour cell line growth inhibition, 48 h
NCI-H226 = system: NCI-H226
ACHN = system: ACHN
SF-539 = system: SF-539
MDA-MB-435 = system: MDA-MB-435
SF-295 = system: SF-295
SN12C = system: SN12C
NCI-H522 = system: NCI-H522
U-251 = system: U-251
TK-10 = system: TK-10
HOP-62 = system: HOP-62
SK-MEL-2 = system: SK-MEL-2
MDA-N = system: MDA-N
RXF 393 = system: RXF 393
SNB-19 = system: SNB-19
UACC-62 = system: UACC-62
SK-MEL-28 = system: SK-MEL-28
NCI-H23 = system: NCI-H23
UO-31 = system: UO-31
HCC 2998 = system: HCC 2998
HT-29 = system: HT-29

For `COC(=O)NC1=NNC(=O)c2ccccc2N1`, the GI50 (NCI-H226) was > 100 µM (inactive), the GI50 (ACHN) was > 100 µM (inactive) and the GI50 (SF-539) was > 100 µM (inactive). The GI50 (MDA-MB-435) was > 100 µM (inactive), the GI50 (SF-295) was > 100 µM (inactive) and the GI50 (SN12C) was > 100 µM (inactive). For the same molecule, the GI50 (NCI-H522) was > 100 µM (inactive), the GI50 (U-251) was > 100 µM (inactive) and the GI50 (TK-10) was > 100 µM (inactive). The GI50 (HOP-62) was > 100 µM (inactive), the GI50 (SK-MEL-2) was > 100 µM (inactive) and the GI50 (MDA-N) was > 100 µM (inactive). The GI50 (RXF 393) was > 100 µM (inactive), the GI50 (SNB-19) was > 100 µM (inactive) and the GI50 (UACC-62) was > 100 µM (inactive). For the same molecule, the GI50 (SK-MEL-28) was > 100 µM (inactive), the GI50 (NCI-H23) was > 100 µM (inactive) and the GI50 (UO-31) was > 100 µM (inactive). For the same molecule, the GI50 (HCC 2998) was > 100 µM (inactive) and the GI50 (HT-29) was > 100 µM (inactive).
`COc1ccc2c(NCCCCCCNc3c4ccccc4nc4cc(OC)ccc34)c3ccccc3nc2c1` was tested, and the GI50 (NCI-H226) was 0.212 µM (active), the GI50 (ACHN) was 0.163 µM (active) and the GI50 (SF-539) was 0.0929 µM (active). The GI50 (MDA-MB-435) was 0.254 µM (active), the GI50 (SF-295) was 0.286 µM (active) and the GI50 (SN12C) was 0.0676 µM (active). For the same molecule, the GI50 (NCI-H522) was 0.0624 µM (active), the GI50 (U-251) was 0.0728 µM (active) and the GI50 (TK-10) was 0.385 µM (active). For the same molecule, the GI50 (HOP-62) was 0.137 µM (active), the GI50 (SK-MEL-2) was 0.364 µM (active) and the GI50 (MDA-N) was 0.142 µM (active). The GI50 (RXF 393) was 0.0834 µM (active), the GI50 (SNB-19) was 0.218 µM (active) and the GI50 (UACC-62) was 0.263 µM (active). For the same molecule, the GI50 (SK-MEL-28) was 0.342 µM (active), the GI50 (NCI-H23) was 0.104 µM (active) and the GI50 (UO-31) was 12.9 µM (inactive). For the same molecule, the GI50 (HCC 2998) was 0.135 µM (active) and the GI50 (HT-29) was 0.029 µM (active).
With `CC(=O)OCCOCCN1CCN(C2=C(Cl)C(=O)c3c(O)ccc(O)c3C2=O)CC1` the GI50 (NCI-H226) was 2.89 µM (inactive), the GI50 (ACHN) was 0.286 µM (active) and the GI50 (SF-539) was 1.71 µM (inactive). For the same molecule, the GI50 (MDA-MB-435) was 0.71 µM (active), the GI50 (SF-295) was 1.93 µM (inactive) and the GI50 (SN12C) was 0.767 µM (active). The GI50 (NCI-H522) was 0.265 µM (active), the GI50 (U-251) was 2.13 µM (inactive) and the GI50 (TK-10) was 0.46 µM (active). The GI50 (HOP-62) was 3.04 µM (inactive), the GI50 (SK-MEL-2) was 1.63 µM (inactive) and the GI50 (MDA-N) was 0.497 µM (active). For the same molecule, the GI50 (RXF 393) was 0.69 µM (active), the GI50 (SNB-19) was 3.04 µM (inactive) and the GI50 (UACC-62) was 1.38 µM (inactive). For the same molecule, the GI50 (SK-MEL-28) was 1.04 µM (active), the GI50 (NCI-H23) was 0.684 µM (active) and the GI50 (UO-31) was 1.22 µM (inactive). For the same molecule, the GI50 (HCC 2998) was 2.37 µM (inactive) and the GI50 (HT-29) was 0.796 µM (active).
For `COC(=O)c1cc(C#N)[nH]c1-c1cc(Br)cs1`, the GI50 (NCI-H226) was 10.9 µM (inactive), the GI50 (ACHN) was 19.6 µM (inactive) and the GI50 (SF-539) was 14.3 µM (inactive). For the same molecule, the GI50 (MDA-MB-435) was 13.3 µM (inactive), the GI50 (SF-295) was 10 µM (inactive) and the GI50 (SN12C) was 14.9 µM (inactive). The GI50 (NCI-H522) was 2.1 µM (inactive), the GI50 (U-251) was 13.3 µM (inactive) and the GI50 (TK-10) was 20.3 µM (inactive). The GI50 (HOP-62) was 11.1 µM (inactive), the GI50 (SK-MEL-2) was 12.8 µM (inactive) and the GI50 (MDA-N) was 15.4 µM (inactive). The GI50 (RXF 393) was 5.32 µM (inactive), the GI50 (SNB-19) was 15 µM (inactive) and the GI50 (UACC-62) was 15.8 µM (inactive). The GI50 (SK-MEL-28) was 14.5 µM (inactive), the GI50 (NCI-H23) was 6.67 µM (inactive) and the GI50 (UO-31) was 10 µM (inactive). The GI50 (HCC 2998) was > 41.7 µM (inactive) and the GI50 (HT-29) was 14.2 µM (inactive).
With `Cn1nnc2c(C(N)=S)ncn2c1=O` the GI50 (NCI-H226) was > 100 µM (inactive), the GI50 (ACHN) was > 100 µM (inactive) and the GI50 (SF-539) was > 100 µM (inactive). For the same molecule, the GI50 (MDA-MB-435) was > 100 µM (inactive), the GI50 (SF-295) was 74.1 µM (inactive) and the GI50 (SN12C) was > 100 µM (inactive). For the same molecule, the GI50 (NCI-H522) was > 100 µM (inactive), the GI50 (U-251) was > 100 µM (inactive) and the GI50 (TK-10) was > 100 µM (inactive). For the same molecule, the GI50 (HOP-62) was > 100 µM (inactive), the GI50 (SK-MEL-2) was > 100 µM (inactive) and the GI50 (MDA-N) was > 100 µM (inactive). For the same molecule, the GI50 (RXF 393) was > 100 µM (inactive), the GI50 (SNB-19) was > 100 µM (inactive) and the GI50 (UACC-62) was > 100 µM (inactive). For the same molecule, the GI50 (SK-MEL-28) was > 100 µM (inactive), the GI50 (NCI-H23) was > 100 µM (inactive) and the GI50 (UO-31) was > 100 µM (inactive). The GI50 (HCC 2998) was > 100 µM (inactive) and the GI50 (HT-29) was > 100 µM (inactive).
